Assay results as given in patent publication EP4755880A1, “SUBSTITUTED NITROGEN-CONTAINING BICYCLIC COMPOUND AND USE THEREOF” (Sunshine Lake Pharma Co., Ltd., priority 2023, dated 2025).

Experiments:
MDA-MB-436 cells = assay: Inhibition of proliferation of MDA-MB-436 cells (CellTiter-Glo); type: cell-based; conditions: Homo sapiens, MDA-MB-436, 168 h, 7 days incubation
Procedure: • 1. Cell Pretreatment: MDA-MB-436 cells were cultured in DMEM + 10% FBS + 1% penicillin-dip antibiotics + 1% ITS + 16 µg/ml glutathione. Cells in the logarithmic growth phase were digested with trypsin-EDTA, centrifuged and resuspended, and then seeded at a rate of 500-1000 cells/well in sterile 96-well opaque plates, 90 µl per well. After seeding, the cell culture plates were incubated overnight at 37°C with 5% CO2 before drug treatment. • 2. Drug treatment of MDA-MB-436 cells: The test compound was prepared as a 10 mM stock solution using DMSO. The drug was then diluted to a 10× working solution using growth medium (the compound was started at 100 µM and diluted 4-fold to achieve 9 concentrations). 10 µl of the 10× working solution was added to each well to achieve final drug concentrations of 10000, 2500, 625, 156, 39, 9.7, 2.4, 0.61, and 0.152 nM, respectively. Blank control wells containing the same DMSO concentration were also included, with three replicates for each concentration. After drug addition, the cells were incubated at 37°C with 5% CO2 for 7 days. • 3. After incubation, 100 µl of CellTiter-Glo® Reagent was added to each well, and luminescence was measured. The IC50 value of cell proliferation inhibition was calculated using GraphPad software to fit the curve. Table E: Results of the inhibitory effect of the compound of this invention on the proliferation of MDA-MB-436 cells.

[1] = Pharmacokinetics in mice after intravenous injection or gavage; conditions: BALB/c, mouse, plasma
Procedure: (§1) The compounds of the present invention were administered to test animals in the form of 5% DMSO + 30% PEG400 + 65% physiological saline, 10% DMSO + 10% Kolliphor HS15 + 80% Saline, 10% DMSO + 89% (25% SBE-B-CD) + (2% HCl), 20% PEG400 + 80% sterile water for injection, or 10% DMA+ 10% HS15 + 30% PEG400 + 50% sterile aqueous solution for injection. Animals were fasted for 12 hours before administration but had free access to water. For the intravenous administration group, the dose was 1 mg/kg. Blood samples (approximately 0.15 mL) were collected intravenously at the following time points after administration: 0.083, 0.25, 0.5, 1.0, 2.0, 4.0, 6.0, 8.0 and 24 h (dogs) or 0.083, 0.25, 0.5, 1.0, 2.0, 5.0, 7.0 and 24 h (mice and rats) or 0.083, 0.25, 0.5, 1.0, 2.0, 6.0, 8.0 and 24 h (monkeys). EDTA-K2 was pre-added to the blood collection tube as an anticoagulant. The blood samples were centrifuged at 12,000 rpm for 2 minutes, and plasma was collected and stored at -20 °C or - 70 °C. For the gavage administration group, the dosage was 1 mg/kg (mice, dogs, and monkeys) or 5 mg/kg (rats). After administration, venous blood samples (approximately 0.15 mL) were collected at the following time points: 0.25, 0.5, 1.0, 2.0, 4.0, 6.0, 8.0, and 24 h (dogs) or 0.25, 0.5, 1.0, 2.0, 5.0, 7.0, and 24 h (mice and rats) or 0.25, 0.5, 1.0, 2.0, 6.0, 8.0, and 24 h (monkeys). EDTA-K2 was pre-added to the blood collection tube as an anticoagulant. The blood samples were centrifuged at 12,000 rpm for 2 minutes, and plasma was collected and stored at -20 °C or -70 °C.
(§2) The collected plasma samples were processed (frozen plasma was thawed at room temperature, vortexed for 15 s to mix, 10-20 µL of plasma was taken, 120-150 µL of acetonitrile solution containing internal standard was added, vortexed for 5 min to mix, centrifuged at 4,000 rpm for 5 min, 100 µL of supernatant was taken, and 120-150 Ml/water (v/v = 1/1) was added and mixed). The concentration of compounds in the plasma was then analyzed by LC-MS/MS.

PARP1 = PARP1 (Homo sapiens, UniProt P09874); assay: Inhibition of PARP1 enzyme activity (ELISA, chemiluminescence); type: biochemical; conditions: for IC50: ELISA, histone-coated plate, NAD+, 60 min at 25 °C; for Selectivity PARP2/PARP1: ratio of PARP2 IC50 to PARP1 IC50
Procedure: (§3) Experimental Objective: To evaluate the inhibitory effect of the compounds of the present invention on the enzyme activities of PARP1 and PARP2 using ELISA.
(§4) • 1. histone-coated 384-well plates was prepared: 25 µL of histone solution was added to each well and incubated overnight at 4 °C. • 2. PBST buffer, blocking buffer (PBS buffer with 5% BSA and 0.05% Tween-20 added) and detection buffer (20 mM HEPES pH 7.5 + 100 mM NaCl + 2 mM DTT + 0.002% Tween-20 + 0.1% BSA) were prepared. • 3. The histone-coated 3 84-well plate was washed three times with PBST buffer, blocked at room temperature with 50 µL blocking buffer for 1 hour, and then washed three times with PBST buffer. • 4. Test compounds were prepared as 2000-fold stock solutions in DMSO. 50 nL of the stock solution was mixed with 19.95 µL detection buffer, and 5 µL of the gradient-diluted test compound was transferred to each well. • 5. Enzymatic reaction (PARP1): PARP1 & DNA mix was pre-incubated at 25 °C for 10 minutes. 10 µL of the PARP1 & DNA mix was added to each well and incubated with the test compound at room temperature for 10 minutes. […] Finally, the 384-well plate was washed three times with PBST buffer. Enzymatic reaction (PARP2): PARP2 was pre-incubated at 25 °C for 10 minutes. 10 µL of PARP2 was added to each well and incubated with the test compound at room temperature for 10 minutes. […] Finally, the 384-well plate was washed three times with PBST buffer. • 6. Detection (PARP1): 20 µL of anti-Poly/Mono-ADP Ribose Rabbit mAb was added and incubated at room temperature for 1.5 hours, followed by three washes of the 384-well plate with PBST buffer. Then, 20 µL of diluted anti-rabbit IgG, HRP-linked Antibody (diluted 1:2000 in blocking buffer) was added and incubated at room temperature for 1 hour. After washing the plate three times with PBST buffer, 25 µL of a 1:1 mixture of Femto-ECL Substrate A and Femto-ECL Substrate B was added. Detection (PARP2): 25 µL of Strep-HRP was added and incubated at room temperature for 1 hour, followed by three washes of the 384-well plate with PBS buffer. Then, 25 µL of a 1:1 mixture of Femto-ECL Substrate A and Femto-ECL Substrate B was added. • 7. Chemiluminescence intensity was measured using an Envision multimode microplate reader. • 8. Data Processing
(§5) The inhibition rate was calculated in Excel using formula (1). inh% = (Max−Signal)/(Max−Min)*100 [formula]
(§6) The IC50 value was obtained by fitting the data in XL-Fit using formula (2). Y = bottom + (top−bottom)/(1+(IC50/X)*HillSlope); [formula] wherein Y is the inhibition percentage and X is the compound concentration.

[2] = Pharmacokinetics in SD rats after intravenous injection or gavage; conditions: rat, plasma
Procedure: as §1, §2
Table D Pharmacokinetic parameters of compounds of the present invention in SD rats

PARP2 = PARP2 (Homo sapiens, UniProt Q9UGN5); assay: biochemical;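 note: PARP2 enzyme ELISA on histone-coated plates, Strep-HRP detection with chemiluminescence read-out, 10 min compound preincubation with enzyme, inhibition scaled between Max and Min signal controls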
Procedure: as §3, §4, §5, §6

DLD-1 BRCA2(-/-) cells = assay: Inhibition of proliferation of DLD-1 BRCA2(-/-) cells (CTG method); type: cell-based; conditions: Homo sapiens, DLD-1, 168 h; 7 days incubation, CellTiter-Glo
Outline: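 DLD-1 BRCA2(-/-) cells, 1,000 per well, attached overnight, then exposed to compound at final 10000 to 0.152 nM (4-fold series) in triplicate for 7 days at 37 °C, 5% CO2. Viability by CellTiter-Glo luminescence; IC50 for proliferation inhibition from a fitted curve.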

Chain of PARP2 (Q9UGN5 whole entry): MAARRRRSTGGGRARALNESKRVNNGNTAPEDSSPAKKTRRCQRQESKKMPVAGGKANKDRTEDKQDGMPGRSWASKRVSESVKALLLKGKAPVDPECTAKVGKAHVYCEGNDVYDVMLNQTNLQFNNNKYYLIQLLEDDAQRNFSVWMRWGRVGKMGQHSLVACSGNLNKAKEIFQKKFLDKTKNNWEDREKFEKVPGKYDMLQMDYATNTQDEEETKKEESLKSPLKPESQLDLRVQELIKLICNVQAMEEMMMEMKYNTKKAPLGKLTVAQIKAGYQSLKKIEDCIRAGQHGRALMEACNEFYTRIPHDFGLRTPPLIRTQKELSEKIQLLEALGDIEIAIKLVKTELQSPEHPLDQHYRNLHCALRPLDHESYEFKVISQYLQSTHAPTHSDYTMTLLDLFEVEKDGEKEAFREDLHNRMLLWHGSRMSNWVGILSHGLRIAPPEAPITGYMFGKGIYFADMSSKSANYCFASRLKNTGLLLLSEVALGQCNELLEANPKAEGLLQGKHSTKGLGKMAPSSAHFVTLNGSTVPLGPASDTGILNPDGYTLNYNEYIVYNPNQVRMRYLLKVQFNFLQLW
Chain of PARP1 (P09874 whole entry): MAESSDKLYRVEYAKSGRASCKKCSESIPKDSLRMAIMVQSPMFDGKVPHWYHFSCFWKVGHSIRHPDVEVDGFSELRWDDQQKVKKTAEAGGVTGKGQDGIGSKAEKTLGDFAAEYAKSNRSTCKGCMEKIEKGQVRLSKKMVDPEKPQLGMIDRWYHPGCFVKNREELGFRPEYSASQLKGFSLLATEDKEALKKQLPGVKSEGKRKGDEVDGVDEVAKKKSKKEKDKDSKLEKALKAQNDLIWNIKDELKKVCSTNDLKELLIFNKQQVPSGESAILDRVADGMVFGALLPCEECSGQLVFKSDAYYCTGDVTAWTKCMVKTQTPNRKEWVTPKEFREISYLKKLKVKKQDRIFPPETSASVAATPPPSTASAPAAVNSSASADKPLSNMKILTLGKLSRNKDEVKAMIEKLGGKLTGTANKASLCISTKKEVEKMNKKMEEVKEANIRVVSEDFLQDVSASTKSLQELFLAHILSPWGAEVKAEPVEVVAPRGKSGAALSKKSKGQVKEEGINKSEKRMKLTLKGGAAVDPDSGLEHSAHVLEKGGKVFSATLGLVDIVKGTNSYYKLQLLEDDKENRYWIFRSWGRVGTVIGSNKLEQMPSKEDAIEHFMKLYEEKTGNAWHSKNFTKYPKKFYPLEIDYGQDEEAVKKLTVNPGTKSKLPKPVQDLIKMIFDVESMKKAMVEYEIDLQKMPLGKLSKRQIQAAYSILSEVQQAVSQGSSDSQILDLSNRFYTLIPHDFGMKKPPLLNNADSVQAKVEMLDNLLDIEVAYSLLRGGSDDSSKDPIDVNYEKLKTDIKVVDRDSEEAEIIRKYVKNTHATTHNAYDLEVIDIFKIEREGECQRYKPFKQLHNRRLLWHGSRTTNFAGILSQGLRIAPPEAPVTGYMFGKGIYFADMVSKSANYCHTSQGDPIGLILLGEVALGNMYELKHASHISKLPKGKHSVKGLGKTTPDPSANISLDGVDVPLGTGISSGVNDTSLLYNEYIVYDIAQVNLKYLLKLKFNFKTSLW

SMILES | IC50 (MDA-MB-436 cells) [nM] | AUC(0-t) ([1]; iv, 2 mg/kg) [ng·h/mL] | Cmax ([1]; iv, 2 mg/kg) [ng/mL] | half-life ([1]; iv, 2 mg/kg) [h] | AUC(0-t) ([1]; po, 5 mg/kg) [ng·h/mL] | Cmax ([1]; po, 5 mg/kg) [ng/mL] | half-life ([1]; po, 5 mg/kg) [h] | IC50 (PARP1) [nM] | Selectivity PARP2/PARP1 (PARP1) | AUC(0-t) ([2]; iv, 1 mg/kg) [ng·h/mL] | Cmax ([2]; iv, 1 mg/kg) [ng/mL] | half-life ([2]; iv, 1 mg/kg) [h] | AUC(0-t) ([2]; po, 5 mg/kg) [ng·h/mL] | Cmax ([2]; po, 5 mg/kg) [ng/mL] | half-life ([2]; po, 5 mg/kg) [h] | IC50 (PARP2) [nM] | IC50 (DLD-1 BRCA2(-/-) cells) [nM]
CNC(=O)c1ccc(N2CCN(Cc3cc(-c4ccccc4)c4nc(C)c(=O)[nH]c4c3)CC2)c(F)n1 [Example 2, 6-fluoro-N-methyl-5-(4-((2-methyl-3-oxo-8-phenyl-3,4-dihydroquinoxalin-6-yl)methyl)piperazin-1-yl)picolinamide] | 20.2 | 2870 | 942 | 3.1 | 8560 | 1450 | 3.9 | 1.5 | 2084.7 | 1090 | 534 | 2.1 | 5610 | 719 | 3.4 | 3130 | 22.9
CNC(=O)c1ccc(N2CCN(Cc3cc(OC(C)C)c4nc(C)c(=O)[nH]c4c3)CC2)c(F)n1 [Example 3, 6-fluoro-5-(4-((8-isopropoxy-2-methyl-3-oxo-3,4-dihydroquinoxalin-6-yl)methyl)piperazin-1-yl)-N-methylpicolinamide] | 7.5 | 2140 | 1220 | 1.9 | 4890 | 1780 | 2.4 | 2.67 | 53.2 | 1990 | 653 | 3.4 | 13100 | 1400 | 3.7 | 142 | 4.6
CC#Cc1cc(CN2CCN(c3ccc(C(=O)NC)nc3F)CC2)cc2[nH]c(=O)c(C)nc12 [Example 7, 6-fluoro-N-methyl-5-(4-((2-methyl-3-oxo-8-(prop-1-yn-1-yl)-3,4-dihydroquinoxalin-6-yl)methyl)piperazin-1-yl)picolinamide] | 10.7 | 2140 | 1300 | 1.6 | 6370 | 3230 | 1.8 | 1.3 | 362.1 | 3370 | 1170 | 3.4 | 22400 | 2600 | 3.3 | 472 | 2.5
CNC(=O)c1ccc(N2CCN(Cc3cc(OC(F)F)c4nc(C)c(=O)[nH]c4c3)CC2)c(F)n1 [Example 13, 5-(4-((8-(difluoromethoxy)-2-methyl-3-oxo-3,4-dihydroquinoxalin-6-yl)methyl)piperazin-1-yl)-6-fluoro-N-methylpicolinamide] | 3.5 | 17000 | 6560 | 1.9 | 33900 | 11500 | 2.9 | 0.713 | 256.6 | 7720 | 2730 | 3.2 | 57900 | 5810 | 4.4 | 183 | 1.3
CNC(=O)c1ccc(C2=CCN(Cc3cc(OC(F)F)c4nc(C)c(=O)[nH]c4c3)CC2)c(F)n1 [Example 15, 1'-((8-(difluoromethoxy)-2-methyl-3-oxo-3,4-dihydroquinoxalin-6-yl)methyl)-2-fluoro-N-methyl-1',2',3',6'-tetrahydro-[3,4'-bipyridine]-6-carboxamide] | 1.3 | 75300 | 13600 | 3.8 | 189000 | 19000 | 4.2 | 0.6 | 248.4 | 6060 | 1560 | 4.1 | 31600 | 3630 | 4.5 | 137 | 4.1
CC#Cc1cc(CN2CCN(c3ccc(C(=O)NC4CC4)nc3F)CC2)cc2[nH]c(=O)c(C)nc12 [Example 35, N-cyclopropyl-6-fluoro-5-(4-((2-methyl-3-oxo-8-(prop-1-yn-1-yl)-3,4-dihydroquinoxalin-6-yl)methyl)piperazin-1-yl)picolinamide] | 0.2 | 2750 | 3750 | 1.2 | 4860 | 2760 | 1.5 | 2 | 44.3 | 5680 | 2230 | 2.4 | 48300 | 4970 | 2.8 | 90.2 | 13
CC#Cc1cc(CN2CC=C(c3ccc(C(=O)NC4CC4)nc3F)CC2)c(F)c2[nH]c(=O)c(C)nc12 [Example 41, N-cyclopropyl-2-fluoro-1'-((5-fluoro-2-methyl-3-oxo-8-(prop-1-yn-1-yl)-3,4-dihydroquinoxalin-6-yl)methyl)-1',2',3',6'-tetrahydro-[3,4'-bipyridine]-6-carboxamide] | 11.8 | 2230 | 3150 | 1.3 | 4630 | 2720 | 1.9 | 3.1 | 3254.4 | 1670 | 1720 | 2.1 | 7870 | 3130 | 2.8 | > 10000 | 37.4
Cc1nc2c(OC(F)F)cc(CN3CC=C(c4ccc(C(=O)NC5CC5)nc4F)CC3)cc2[nH]c1=O [Example 42, N-cyclopropyl-1'-((8-(difluoromethoxy)-2-methyl-3-oxo-3,4-dihydroquinoxalin-6-yl)methyl)-2-fluoro-1',2',3',6'-tetrahydro-[3,4'-bipyridine]-6-carboxamide] | 0.3 | 18100 | 8180 | 2.5 | 61500 | 15100 | 2.5 | 0.9 | 239.7 |  |  |  |  |  |  | 221 | 7
CNC(=O)c1ccc(N2CCN(Cc3cc(OC(F)F)c4nc(C)c(=O)[nH]c4c3)CC2)c(C)n1 [Example 52, 5-(4-((8-(difluoromethoxy)-2-methyl-3-oxo-3,4-dihydroquinoxalin-6-yl)methyl)piperazin-1-yl)-N,6-dimethylpicolinamide] | 1.4 | 17800 | 7220 | 2.5 | 67100 | 10700 | 2.8 |  |  | 3520 | 1190 | 3.5 | 31100 | 2580 | 3.8 |  | 2.2
CNC(=O)c1ccc(N2CCN(Cc3cc(OC4CCCCC4)c4nc(C)c(=O)[nH]c4c3)CC2)c(F)n1 [Example 72, 5-(4-((8-(cyclohexyloxy)-2-methyl-3-oxo-3,4-dihydroquinoxalin-6-yl)methyl)piperazin-1-yl)-6-fluoro-N-methylpyridine amide] | 12 |  |  |  |  |  |  | 1.3 | 756.9 |  |  |  |  |  |  | 992 | 9.1
